For data set [1], the system named is L. donovani amastigotes. The data set is described as follows: Ld InMac intramacrophage Leishmania donovani assay. The class given is cell-based. The conditions noted are these: for EC50: Leishmania donovani, L. donovani amastigotes in THP-1 cells, mean of n ≥ 3, read-out: Ld InMac pEC50 (converted); for loss of potency (less active) versus comparator compound: Ld InMac, versus matched comparator. An excerpt: (§1) For the identification of DDD853651/GSK3186899, which contained a trans-1,4-cyclohexyldiamine, a key strategy was to optimise the balance between potency in the intracellular Leishmania assay (L. donovani in THP-1 cells, referred to as Ld InMac assay[9]) and solubility.[10] In that case, we focused on 2 (Table 1), where the sulfonamide was required for potency but was poorly soluble. […] To this end, we examined a 4-aminopiperidine central unit with both sulfonamide and amide substituents (Table 1). […] We therefore selected 4 as a suitable start-point for further chemistry. […] We noted that either lengthening the linker to the aromatic ring, or removing it, led to a loss of activity (6 and 7 respectively).
(§2) Intramacrophage Leishmania donovani Assay

Data set [2] relates to THP-1 cells. The data set is described as follows: THP-1 host cell toxicity readout of the Ld InMac assay. The conditions noted are these: Homo sapiens; host THP-1 cells; mean of n ≥ 3; read-out: THP-1 pEC50 (converted). The data set is classed as cell-based.
From the text: as §1, §2

Data set [3] is described as follows: CAD kinetic aqueous solubility. The data set is classed as physicochemical. The conditions noted are these: pH 7.4, pH7.4 phosphate buffered saline. As to the method:
CAD Aqueous Solubility 11
5µl of 10mM DMSO stock solution is diluted to 100 µ l with pH7.4 phosphate buffered saline,
equilibrated for 1 hour at room temperature and filtered through Millipore MultiscreenHTS-PCF

A short description of data set [4]: Stability in mouse liver microsomes (intrinsic clearance). The conditions noted are these: mouse liver microsomal intrinsic clearance, 0.5 μM. The data set is classed as in vitro ADME. As to the method: Stability in Microsomes 10
Test compound (0.5 μM) was incubated with female CD1 mouse (Xenotech) liver microsomes and their action started with addition of excess NADPH (8 mg/mL 50 mM potassium phosphate buffer, pH 7.4). Immediately, at time zero, then at 3, 6, 9, 15, and 30 min, an aliquot (50 μL) of the incubation mixture was removed and mixed with acetonitrile (100 μL) to stop the reaction.
Internal standard was added to all samples, the samples centrifuged to sediment precipitated protein, and the plates then sealed prior to UPLC-MS/MS analysis using a Xevo TQs micro (Waters Corporation, USA). XLfit (IDBS, UK) was used to calculate the exponential decay and consequently the rate constant (k) from the ratio of the peak area of test compound to internal standard at each time point. The rate of intrinsic clearance (Cl i) of each test compound was then calculated using the equation Cl i (mL/min/g liver) = k × V × microsomal protein yield, where V (mL/mg protein) is the incubation volume/mg protein added and […]
microsomal protein yield is taken as 52.5 mg protein/g liver. Verapamil (0.5 μM) was used as a positive control to confirm acceptable assay performance. […]

In brackets after ≈: the same amount, converted by molar mass.

As usually defined, the solubility is how much of the substance goes into solution per volume. Higher therefore signals much dissolved substance. As to `COc1ccccc1-c1n[nH]c2nc(NC3CCN(S(=O)(=O)CCC(F)(F)F)CC3)ncc12` [Compound 37], the EC50 in data set [1] was 0.2 µM; in data set [2], > 50.1 µM. For the same compound, the solubility at 1 h in data set [3] is < 1 µM. The Cli mouse in data set [4] was 14 ml min^–1 g^–1.
For `O=C(Cc1ccc(F)cc1F)N1CCC(Nc2ncc3c(-c4ccccc4)n[nH]c3n2)CC1` [Compound 17] the same measures were 0.316 µM, > 50.1 µM, < 1 µM and 7.2 ml min^–1 g^–1.
For `O=C(Cc1ccc(F)c(F)c1)N1CCC(Nc2ncc3c(C4CCOCC4)n[nH]c3n2)CC1` [Compound 47] the same measures were 1 µM, > 50.1 µM, ≥ 429 µM and 3.1 ml min^–1 g^–1.
Take `Cn1nccc1-c1n[nH]c2nc(NC3CCN(C(=O)Cc4ccc(F)cc4F)CC3)ncc12` [Compound 19]: in data set [1], the “loss of potency (less active) versus comparator compound” value was 10 fold and the EC50 was 3.16 µM. Further, the EC50 in data set [2] is 20 µM. For the same compound, the solubility at 1 h in data set [3] was found to be 30 µM (≈ 13.6 µg/mL). Further, the Cli mouse in data set [4] turned out to be 3.3 ml min^–1 g^–1.
On to `CC(C)Cc1nn(C)c2nc(NC3CCN(C(=O)Cc4ccc(F)cc4F)CC3)ncc12` [Compound 24], for which, in data set [1], the “loss of potency (less active) versus comparator compound” value was > 10 fold and the EC50 was > 50.1 µM. Moreover, the EC50 in data set [2] was > 50.1 µM.
Consider `COc1ccccc1-c1n[nH]c2nc(NC3CCN(C(=O)Cc4ccc(F)c(F)c4)CC3)ncc12` [Compound 43], for which the EC50 in data set [1] was 0.0251 µM; in data set [2], 15.8 µM. This compound yielded a solubility at 1 h in data set [3] of 53 µM (≈ 25.4 µg/mL). This compound also had a Cli mouse in data set [4] of 6.3 ml min^–1 g^–1.
For `COc1ncccc1-c1n[nH]c2nc(NC3CCN(C(=O)Cc4ccc(F)cc4F)CC3)ncc12` [Compound 21] the same measures were 0.0794 µM, > 50.1 µM, 25 µM (≈ 12 µg/mL) and 15 ml min^–1 g^–1.
For `CCOC(=O)N1CCC(Nc2ncc3c(-c4ccccc4OC)n[nH]c3n2)CC1` [Compound 38] the same measures were 0.501 µM, 39.8 µM, 24 µM (≈ 9.51 µg/mL) and 14 ml min^–1 g^–1.
For the compound `O=C(Cc1ccc(F)cc1F)N1CCC(Nc2ncc3c(C4CCOCC4)n[nH]c3n2)CC1` [Compound 13], the EC50 was 1 µM in data set [1] and > 50.1 µM in data set [2]. The solubility at 1 h in data set [3] came out at 78 µM (≈ 35.6 µg/mL). The same compound yielded a Cli mouse in data set [4] of 0.5 ml min^–1 g^–1.
Consider `CC(C)Cc1noc2nc(NC3CCN(C(=O)Cc4ccc(F)cc4F)CC3)ncc12` [Compound 25], for which the “loss of potency (less active) versus comparator compound” value in data set [1] is recorded as > 10 fold. The EC50 in data set [1] and in data set [2] was > 50.1 µM each time.
With `O=C(Cc1ccc(F)cc1F)N1CCC(Nc2ncc3c(C4CC4)n[nH]c3n2)CC1` [Compound 12], the values for the EC50 in data set [1] and in data set [2] were 1.26 µM and > 50.1 µM, respectively. Further, in data set [3], the solubility at 1 h stood at 39 µM (≈ 16.1 µg/mL). The Cli mouse in data set [4] stood at 5.0 ml min^–1 g^–1.
Turning to `COc1ccccc1-c1n[nH]c2nc(OC3CCN(C(=O)Cc4ccc(F)cc4F)CC3)ncc12` [Compound 23], the “loss of potency (less active) versus comparator compound” value in data set [1] is listed as > 10 fold. Moreover, the EC50 in data set [1] is 20 µM; in data set [2], > 50.1 µM.
For the compound `O=C(Cc1ccc(F)cc1F)N1CCC[C@@H](Nc2ncc3c(-c4ccccn4)n[nH]c3n2)C1` [Compound 30], the EC50 in data set [1] and in data set [2] was > 50.1 µM each time.
For the compound `CC(C)Cc1n[nH]c2nc(NC3CCN(C(=O)c4ccccc4)CC3)ncc12` [Compound 7], the EC50 in data set [1] and in data set [2] was > 50.1 µM throughout. The same compound came in with a solubility at 1 h in data set [3] of 291 µM (≈ 110 µg/mL). Besides, the Cli mouse in data set [4] was found to be 7 ml min^–1 g^–1.
Take `C[C@@H]1[C@H](O)[C@@H](C)/C=C/C=C/C=C/C=C/C=C/C=C/C=C/[C@H](O[C@@H]2O[C@H](C)[C@@H](O)[C@H](N)[C@@H]2O)C[C@@H]2O[C@](O)(C[C@@H](O)C[C@@H](O)[C@H](O)CC[C@@H](O)C[C@@H](O)CC(=O)O[C@H]1C)C[C@H](O)[C@H]2C(=O)O` [amphotericin B, reference compound]: in data set [1], the EC50 was 0.2 µM.
Turning to `O=C(CC1CC1)N1CCC(Nc2ncc3c(N4CCOCC4)n[nH]c3n2)CC1` [Compound 46], the values for the EC50 in data set [1] and in data set [2] were 15.8 µM and > 50.1 µM, respectively.
For the compound `CC(C)Cc1n[nH]c2nc(NC3CCN(C(=O)C(C)c4ccccc4)CC3)ncc12` (centres unmarked) [Compound 10], the EC50 is 5.01 µM in data set [1] and > 50.1 µM in data set [2]. In data set [3], this compound had a solubility at 1 h of 140 µM (≈ 56.9 µg/mL).
Consider `COc1ccccc1-c1c[nH]c2nc(NC3CCN(C(=O)Cc4ccc(F)cc4F)CC3)ncc12` [Compound 26], for which the “loss of potency (less active) versus comparator compound” value in data set [1] was > 10 fold. The EC50 in data set [1] and in data set [2] was > 50.1 µM in each case.
As for `COc1ccccc1-c1n[nH]c2nc(N[C@H]3CCC[C@@H](NC(=O)Cc4ccc(F)cc4F)C3)ncc12` [Compound 31], the EC50 in data set [1] was 31.6 µM; in data set [2] it was 25.1 µM.
The corresponding values for `COc1ccccc1-c1n[nH]c2nc(N[C@H]3CCC[C@H](NC(=O)Cc4ccc(F)cc4F)C3)ncc12` [Compound 32] are 15.8 µM and 31.6 µM.
For `COc1ccccc1C(=O)c1cnc(NC2CCN(C(=O)Cc3ccc(F)cc3F)CC2)nc1N` [Compound 27] the same measures were 6.31 µM and 10 µM.
In the case of `COc1ccccc1-c1n[nH]c2nc(NCC3CN(C(=O)Cc4ccc(F)cc4F)C3)ncc12` [Compound 35], the EC50 in data set [1] and in data set [2] was > 50.1 µM each time.
For `CC(C)(C)Cc1n[nH]c2nc(NC3CCN(C(=O)Cc4ccc(F)cc4F)CC3)ncc12` [Compound 11], the EC50 in data set [1] and in data set [2] was > 50.1 µM throughout. In data set [3], this compound returned a solubility at 1 h of 27 µM (≈ 11.9 µg/mL). Moreover, in data set [4], the Cli mouse came to 22.0 ml min^–1 g^–1.
With `CC(C)Cc1n[nH]c2nc(N(C)C3CCN(C(=O)Cc4ccc(F)cc4F)CC3)ncc12` [Compound 22], in data set [1], the “loss of potency (less active) versus comparator compound” value was > 10 fold and the EC50 was > 50.1 µM. Also, the EC50 in data set [2] is > 50.1 µM.
With `CC(C)Oc1n[nH]c2nc(NC3CCN(C(=O)Cc4ccc(F)cc4F)CC3)ncc12` [Compound 16], the EC50 in data set [1] is 6.31 µM; in data set [2], > 50.1 µM. In addition, the solubility at 1 h in data set [3] worked out at 33 µM (≈ 14.2 µg/mL).
Regarding `O=C(Cc1ccc(F)cc1F)N1CCC(Nc2ncc3c(CN4CCOCC4)n[nH]c3n2)CC1` [Compound 14], the EC50 in data set [1] was 25.1 µM; in data set [2], > 50.1 µM. In data set [4], the Cli mouse was <0.5 ml min^–1 g^–1.
Take `CC(C)(CNC(=O)Cc1ccc(F)cc1F)Nc1ncc2c(-c3ccccn3)n[nH]c2n1` [Compound 36]: the EC50 in data set [1] and in data set [2] was > 50.1 µM throughout.
Consider `CC(C)Cc1n[nH]c2nc(NC3CCN(C(=O)CCc4ccccc4)CC3)ncc12` [Compound 6], for which the EC50 in data set [1] is 20 µM; in data set [2] it was > 50.1 µM.
Regarding `CC(C)Cc1n[nH]c2nc(N[C@H]3CC[C@H](NC(=O)Cc4ccccc4)CC3)ncc12` [Compound 3], the EC50 in data set [1] and in data set [2] was > 50.1 µM in each case. Besides, the solubility at 1 h in data set [3] worked out at 51 µM (≈ 20.7 µg/mL).
On to `O=C(Cc1ccc(F)cc1F)N1CCC[C@H](Nc2ncc3c(-c4ccccn4)n[nH]c3n2)C1` [Compound 29], for which the results for the EC50 in data set [1] and in data set [2] were 12.6 µM and > 50.1 µM, respectively.
As to `O=C(CC1CC1)N1CCC(Nc2ncc3c(-c4ccccn4)n[nH]c3n2)CC1` [Compound 45], the values for the EC50 in data set [1] and in data set [2] were 5.01 µM and > 50.1 µM, respectively. Besides, the solubility at 1 h in data set [3] is ≥ 392 µM.
As to `O=C(Cc1ccc(F)cc1F)N1CCC(CNc2ncc3c(-c4ccccn4)n[nH]c3n2)CC1` [Compound 34], the EC50 in data set [1] and in data set [2] was > 50.1 µM in each case.
As to `COc1ccccc1-c1n[nH]c2nc(NC3CCN(C(=O)OCc4ccccc4)CC3)ncc12` [Compound 39], the EC50 in data set [1] was 0.398 µM; in data set [2], > 50.1 µM. In data set [4], this compound came in with a Cli mouse of 9 ml min^–1 g^–1.
As to `COc1ccccc1C(=O)c1cnc(NC2CCN(C(=O)Cc3ccc(F)cc3F)CC2)nc1` [Compound 28], the figures for the EC50 in data set [1] and in data set [2] were 6.31 µM and > 50.1 µM, respectively.
In the case of `CCCCCCCCCCCCCCCCOP(=O)([O-])OCC[N+](C)(C)C` [miltefosine, reference compound], the EC50 in data set [1] was 0.794 µM.
In the case of `COc1ccccc1-c1n[nH]c2nc(NC3(C)CCN(C(=O)Cc4ccc(F)cc4F)CC3)ncc12` [Compound 33], the EC50 was 3.98 µM in data set [1] and 39.8 µM in data set [2].

The record behind these values is publication PMC7651859, “Identification of 6-amino-1H-pyrazolo[3,4-d]pyrimidines with in vivo efficacy against visceral leishmaniasis” (RSC Medicinal Chemistry, 2020).
